Assay results reported in ChEMBL document CHEMBL1629580, “Sec- and Tat-dependent translocation of beta-lactamases across the Escherichia coli inner membrane” (2009).
Values after ≈ are worked out from the molar mass of the structure shown.

Experiments:
Escherichia coli [1] = assay: Antimicrobial activity against mreB-deficient Escherichia coli YLS-3 expressing beta-lactamase TEM-1 by liquid microdilution method; format: functional
Escherichia coli [2] = assay: Antimicrobial activity against Escherichia coli CU164A expressing beta-lactamase TEM-1 by liquid microdilution method; format: functional
Escherichia coli [3] = assay: Antimicrobial activity against translocase tatC-deficient Escherichia coli B1LK0A expressing beta-lactamase TEM-1 by liquid microdilution method; format: functional
Escherichia coli [4] = assay: Antimicrobial activity against Escherichia coli MC4100A harboring beta-lactamase CTX-M-14 by liquid microdilution method; format: functional
Escherichia coli [5] = assay: Antimicrobial activity against Escherichia coli CU164A harboring beta-lactamase CTX-M-14 by liquid microdilution method; format: functional
Escherichia coli [6] = assay: Antimicrobial activity against translocase tatC-deficient Escherichia coli B1LK0A harboring beta-lactamase CTX-M-14 by liquid microdilution method; format: functional
Escherichia coli [7] = assay: Antimicrobial activity against Escherichia coli MC4100A harboring beta-lactamase L1 by liquid microdilution method; format: functional
Escherichia coli [8] = assay: Antimicrobial activity against Escherichia coli CU164A harboring beta-lactamase L1 by liquid microdilution method; format: functional
Escherichia coli [9] = assay: Antimicrobial activity against translocase tatC-deficient Escherichia coli B1LK0A harboring beta-lactamase L1 by liquid microdilution method; format: functional
Escherichia coli [10] = assay: Antimicrobial activity against Escherichia coli MC4100A harboring beta-lactamase L2 by liquid microdilution method
Escherichia coli [11] = assay: Antimicrobial activity against Escherichia coli CU164A harboring beta-lactamase L2 by liquid microdilution method
Escherichia coli [12] = assay: Antimicrobial activity against translocase tatC-deficient Escherichia coli B1LK0A harboring beta-lactamase L2 by liquid microdilution method; format: functional
Escherichia coli [13] = assay: Antimicrobial activity against Escherichia coli MC4100A harboring beta-lactamase AmpC by liquid microdilution method; format: functional
Escherichia coli [14] = assay: Antimicrobial activity against Escherichia coli CU164A harboring beta-lactamase AmpC by liquid microdilution method
Escherichia coli [15] = assay: Antimicrobial activity against translocase tatC-deficient Escherichia coli B1LK0A harboring beta-lactamase AmpC by liquid microdilution method
Escherichia coli [16] = assay: Antimicrobial activity against Escherichia coli MC4100A harboring empty plasmid by liquid microdilution method; format: functional
Escherichia coli [17] = assay: Antimicrobial activity against Escherichia coli CU164A harboring empty plasmid by liquid microdilution method; format: functional
Escherichia coli [18] = assay: Antimicrobial activity against translocase tatC-deficient Escherichia coli B1LK0A harboring empty plasmid by liquid microdilution method; format: functional
Escherichia coli [19] = assay: Antimicrobial activity against Escherichia coli MC4100A expressing beta-lactamase TEM-1 by liquid microdilution method; format: functional
Escherichia coli [20] = assay: Antimicrobial activity against mreB-deficient Escherichia coli YLS-3 harboring beta-lactamase CTX-M-14 by liquid microdilution method; format: functional
Escherichia coli [21] = assay: Antimicrobial activity against mreB-deficient Escherichia coli YLS-3 harboring beta-lactamase L1 by liquid microdilution method
Escherichia coli [22] = assay: Antimicrobial activity against mreB-deficient Escherichia coli YLS-3 harboring beta-lactamase AmpC by liquid microdilution method
Escherichia coli [23] = assay: Antimicrobial activity against mreB-deficient Escherichia coli YLS-3 harboring empty plasmid by liquid microdilution method; format: functional
Escherichia coli [24] = assay: Antimicrobial activity against mreB-deficient Escherichia coli YLS-3 harboring beta-lactamase L2 by liquid microdilution method; format: functional

Compound | MIC (Escherichia coli [1]) | MIC (Escherichia coli [2]) | MIC (Escherichia coli [3]) | MIC (Escherichia coli [4]) | MIC (Escherichia coli [5]) | MIC (Escherichia coli [6]) | MIC (Escherichia coli [7]) | MIC (Escherichia coli [8]) | MIC (Escherichia coli [9]) | MIC (Escherichia coli [10]) | MIC (Escherichia coli [11]) | MIC (Escherichia coli [12]) | MIC (Escherichia coli [13]) | MIC (Escherichia coli [14]) | MIC (Escherichia coli [15]) | MIC (Escherichia coli [19]) | MIC (Escherichia coli [20]) | MIC (Escherichia coli [21]) | MIC (Escherichia coli [22]) | MIC (Escherichia coli [24]) | also measured
CC1(C)S[C@@H]2[C@H](NC(=O)[C@H](N)c3ccc(O)cc3)C(=O)N2[C@H]1C(=O)O [AMOXICILLIN] | 256 µg/mL (≈ 701 µM) | 1020 µg/mL (≈ 2800 µM) | 512 µg/mL (≈ 1400 µM) | 2050 µg/mL (≈ 5600 µM) | 2050 µg/mL (≈ 5600 µM) | 2050 µg/mL (≈ 5600 µM) | 1020 µg/mL (≈ 2800 µM) | 512 µg/mL (≈ 1400 µM) | 512 µg/mL (≈ 1400 µM) | 64 µg/mL (≈ 175 µM) | 512 µg/mL (≈ 1400 µM) | 4 µg/mL (≈ 10.9 µM) | 512 µg/mL (≈ 1400 µM) | 512 µg/mL (≈ 1400 µM) | 512 µg/mL (≈ 1400 µM) | 1020 µg/mL (≈ 2800 µM) | 1020 µg/mL (≈ 2800 µM) | 512 µg/mL (≈ 1400 µM) | 128 µg/mL (≈ 350 µM) | 256 µg/mL (≈ 701 µM) | MIC (Escherichia coli [16]): 4 µg/mL (≈ 10.9 µM); MIC (Escherichia coli [17]): 4 µg/mL (≈ 10.9 µM); MIC (Escherichia coli [18]): 4 µg/mL (≈ 10.9 µM); MIC (Escherichia coli [23]): 4 µg/mL (≈ 10.9 µM)
CO/N=C(\C(=O)N[C@@H]1C(=O)N2C(C(=O)O)=C(COC(C)=O)CS[C@H]12)c1csc(N)n1 [CEFOTAXIME] | ≤ 0.06 µg/mL | ≤ 0.06 µg/mL | ≤ 0.06 µg/mL | 16 µg/mL (≈ 35.1 µM) | 16 µg/mL (≈ 35.1 µM) | 16 µg/mL (≈ 35.1 µM) | 1 µg/mL (≈ 2.2 µM) | 1 µg/mL (≈ 2.2 µM) | 1 µg/mL (≈ 2.2 µM) | 2 µg/mL (≈ 4.39 µM) | 2 µg/mL (≈ 4.39 µM) |  | 0.5 µg/mL (≈ 1.1 µM) | 0.5 µg/mL (≈ 1.1 µM) | 0.5 µg/mL (≈ 1.1 µM) | ≤ 0.06 µg/mL | 4 µg/mL (≈ 8.78 µM) | 0.06 µg/mL (≈ 0.132 µM) | 0.12 µg/mL (≈ 0.263 µM) | 0.06 µg/mL (≈ 0.132 µM) | 
CC(C)(O/N=C(\C(=O)N[C@@H]1C(=O)N2C(C(=O)[O-])=C(C[n+]3ccccc3)CS[C@H]12)c1csc(N)n1)C(=O)O [CEFTAZIDIME] | ≤ 0.06 µg/mL | ≤ 0.06 µg/mL | ≤ 0.06 µg/mL | 1 µg/mL (≈ 1.83 µM) | 1 µg/mL (≈ 1.83 µM) | 1 µg/mL (≈ 1.83 µM) | 8 µg/mL (≈ 14.6 µM) | 8 µg/mL (≈ 14.6 µM) | 8 µg/mL (≈ 14.6 µM) | 4 µg/mL (≈ 7.32 µM) | 4 µg/mL (≈ 7.32 µM) | ≤ 0.06 µg/mL | 0.25 µg/mL (≈ 0.457 µM) | 0.25 µg/mL (≈ 0.457 µM) | 0.25 µg/mL (≈ 0.457 µM) | ≤ 0.06 µg/mL | 0.5 µg/mL (≈ 0.915 µM) | 0.06 µg/mL (≈ 0.11 µM) | 0.06 µg/mL (≈ 0.11 µM) | 0.06 µg/mL (≈ 0.11 µM) | MIC (Escherichia coli [16]): ≤ 0.06 µg/mL; MIC (Escherichia coli [17]): ≤ 0.06 µg/mL; MIC (Escherichia coli [18]): ≤ 0.06 µg/mL; MIC (Escherichia coli [23]): ≤ 0.06 µg/mL
CC(=O)OCC1=C(C(=O)O)N2C(=O)[C@@H](NC(=O)Cc3cccs3)[C@H]2SC1 [CEPHALOTHIN] | 8 µg/mL (≈ 20.2 µM) | 32 µg/mL (≈ 80.7 µM) | 16 µg/mL (≈ 40.4 µM) | 1020 µg/mL (≈ 2580 µM) | 1020 µg/mL (≈ 2580 µM) | 512 µg/mL (≈ 1290 µM) | 128 µg/mL (≈ 323 µM) | 128 µg/mL (≈ 323 µM) | 128 µg/mL (≈ 323 µM) | 256 µg/mL (≈ 646 µM) | 256 µg/mL (≈ 646 µM) | ≤ 2 µg/mL | 1020 µg/mL (≈ 2580 µM) | 512 µg/mL (≈ 1290 µM) | 256 µg/mL (≈ 646 µM) | 32 µg/mL (≈ 80.7 µM) | 128 µg/mL (≈ 323 µM) | 32 µg/mL (≈ 80.7 µM) | 256 µg/mL (≈ 646 µM) | 64 µg/mL (≈ 161 µM) | MIC (Escherichia coli [16]): 4 µg/mL (≈ 10.1 µM); MIC (Escherichia coli [17]): 4 µg/mL (≈ 10.1 µM); MIC (Escherichia coli [18]): ≤ 2 µg/mL; MIC (Escherichia coli [23]): ≤ 2 µg/mL
CCN1CCN(C(=O)N[C@@H](C(=O)N[C@@H]2C(=O)N3[C@@H]2SC(C)(C)[C@@H]3C(=O)O)c2ccccc2)C(=O)C1=O [PIPERACILLIN] | 32 µg/mL (≈ 61.8 µM) | 256 µg/mL (≈ 495 µM) | 128 µg/mL (≈ 247 µM) | 512 µg/mL (≈ 989 µM) | 512 µg/mL (≈ 989 µM) | 512 µg/mL (≈ 989 µM) | 64 µg/mL (≈ 124 µM) | 32 µg/mL (≈ 61.8 µM) | 32 µg/mL (≈ 61.8 µM) | 128 µg/mL (≈ 247 µM) | 128 µg/mL (≈ 247 µM) | ≤ 2 µg/mL | 32 µg/mL (≈ 61.8 µM) | 32 µg/mL (≈ 61.8 µM) | 32 µg/mL (≈ 61.8 µM) | 512 µg/mL (≈ 989 µM) | 128 µg/mL (≈ 247 µM) | 32 µg/mL (≈ 61.8 µM) | 16 µg/mL (≈ 30.9 µM) | 32 µg/mL (≈ 61.8 µM) | MIC (Escherichia coli [16]): 2 µg/mL (≈ 3.86 µM); MIC (Escherichia coli [17]): 2 µg/mL (≈ 3.86 µM); MIC (Escherichia coli [18]): ≤ 2 µg/mL; MIC (Escherichia coli [23]): ≤ 2 µg/mL
